Assay results from patent US12630547B2, “RAS protein degraders, pharmaceutical compositions thereof, and their therapeutic applications” (BioTheryX, Inc., priority 2019, dated 2026).
Read-outs that look alike come from different tables or passages of the source.

Legend:
Format in all cases: cell-based
MOLM-13 cells = assay: Cell viability assay (CELLTITER-GLO), MOLM-13 cells; conditions: Homo sapiens, MOLM-13, 72 h, compound at 10 μM, 3 days, read-out: Effect on MOLM-13 cell viability (% DMSO)
Method in brief: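 Viability, as % of DMSO control, was read by CellTiter-Glo luminescence after a 3-day compound exposure (single dose of 10 μM or 1 μM) at 37 °C. Cells plated at 4,000/well in RPMI 1640 with 10% FBS. Results reported as categories A <10%, B 10–<25%, C 25–<50%, D ≥50%.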

MV-4-11 cells = assay: Cell viability assay (CELLTITER-GLO), MV-4-11 cells; conditions: Homo sapiens, MV4-11, 72 h; Table 1; compound at 10 μM, 3 days; read-out: Effect on MV-4-11 cell viability (% DMSO)
Method: MOLM-13 cells, MV-4-11 cells, H23, and H358 cells were independently cultured in RPMI 1640 media supplemented with 10% fetal bovine serum, streptomycin and penicillin. The cells were plated in white walled 96-well plates at 4,000 cells/well. The cells were incubated in DMSO (control) or a compound for 3 days at 37° C. under 5% CO2. A CELLTITER-GLO® reagent (100 μL) was then added to each well. After a 10 min incubation with shaking, luminescence was measured using an ENVISION® multimode plate reader.
In Tables 1 and 2, each compound was tested at 10 μM; and in Table 3, each compound was tested at 1 μM. In Tables 1 to 3, the cell viability values as % DMSO are reported as “A,” “B,” “C,” or “D;” where “A” represents a % viability value of less than 10%; “B” represents a % viability value of no less than 10% and less than 25%; “C” represents a % viability value of no less than 25% and less than 50%; and “D” represents a % viability value of no less than 50%. Compound A is […]

H358 cells = assay: Cell viability assay (CELLTITER-GLO), H358 cells; conditions: 3 days; for Inhibition of H358 cells, IC50 (class): Table 4
Method in brief: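 Luminescent ATP read-out (CellTiter-Glo) after 3-day incubation at 37 °C of H358 cells plated at 4,000/well in RPMI 1640 with 10% FBS. Values are either IC50 bins (A ≤1 μM through D >10 μM) or % of DMSO viability at 10 μM or 1 μM, bins A <10% through D ≥50%.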

H23 cells = assay: Cell viability assay (CELLTITER-GLO), H23 cells; conditions: Table 4; 3 days
Method in brief: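 Luminescent CellTiter-Glo readout after 3-day compound treatment (37° C, 5% CO2) of H23 cells plated at 4,000 cells/well in RPMI 1640 plus 10% FBS, DMSO as control. IC50 values given as categorical ranges.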

Row | SMILES | Inhibition of H358 cells, IC50 (class) (H358 cells) | viability at 10 µM (MOLM-13 cells; Table 1) [%] | viability at 10 µM (MV-4-11 cells) [%] | viability at 10 µM (H358 cells; Homo sapiens, NCI-H358, 72 h, Table 1, compound at 10 μM, read-out: Effect on H358 cell viability (% DMSO)) [%] | viability at 10 µM (MOLM-13 cells; Table 2) [%] | Inhibition of H23 cells, IC50 (class) (H23 cells)
1 | C=CC(=O)N1CC(N2Cc3ccc(-c4cc(O)cc5ccccc45)cc3N(CCOCCOCCOCCNc3cccc4c3C(=O)N(C3CCC(=O)NC3=O)C4=O)C2=O)C1 (stereo not drawn) [Compound 2, 4-((2-(2-(2-(2-(3-(1-Acryloylazetidin-3-yl)-7-(3-hydroxynaphthalen-1-yl)-2-oxo-3,4-dihydroquinazolin-1(2H)-yl)ethoxy)ethoxy)ethoxy)ethyl)amino)-2-(2,6-dioxopiperidin-3-yl)isoindoline-1,3-dione] |  | 10 to 25 | < 10 | 10 to 25 |  | 
2 | C=C(Cl)C(=O)N1CCN(c2ncnc3c(F)c(-c4c(F)cccc4OCCCCCCCN4CCC(c5cc6c(cc5F)C(=O)N(C5CCC(=O)NC5=O)C6)CC4)c(Cl)cc23)C[C@H]1CC#N (stereo partly drawn) [Compound 123, 2-((2R)-4-(6-Chloro-7-(2-((7-(4-(2-(2,6-dioxopiperidin-3-yl)-6-fluoro-1-oxoisoindolin-5-yl)piperidin-1-yl)heptyl)oxy)-6-fluorophenyl)-8-fluoroquinazolin-4-yl)-1-(2-chloroacryloyl)-piperazin-2-yl)acetonitrile] | A′ |  |  |  | < 10 | A′
3 | C=CC(=O)N1CCN(c2nc(=O)n(-c3c(C)ccnc3C(C)C)c3nc(-c4c(F)cccc4OCCCCCCCN4CCC(c5cc(F)cc6c5CN(C5CCC(=O)NC5=O)C6=O)CC4)c(F)cc23)[C@@H](C)C1 (stereo partly drawn) [Compound 124, 3-(4-(1-(7-(2-(4-((S)-4-Acryloyl-2-methylpiperazin-1-yl)-6-fluoro-1-(2-isopropyl-4-methylpyridin-3-yl)-2-oxo-1,2-dihydropyrido[2,3-d]pyrimidin-7-yl)-3-fluorophenoxy)heptyl)-piperidin-4-yl)-6-fluoro-1-oxoisoindolin-2-yl)piperidine-2,6-dione] | A′ |  |  |  | < 10 | B′
4 | C=C(Cl)C(=O)N1CCN(c2nc(=O)n(-c3ccc(CCCCCCCN4CCC(c5cc(F)cc6c5CN(C5CCC(=O)NC5=O)C6=O)CC4)cc3C(C)C)c3nc(-c4c(O)cccc4F)c(F)cc23)[C@@H](C)C1 (stereo partly drawn) [Compound 126, 3-(4-(1-(7-(4-(4-((S)-4-(2-Chloroacryloyl)-2-methylpiperazin-1-yl)-6-fluoro-7-(2-fluoro-6-hydroxyphenyl)-2-oxopyrido[2,3-d]pyrimidin-1(2H)-yl)-3-isopropylphenyl)heptyl)piperidin-4-yl)-6-fluoro-1-oxoisoindolin-2-yl)piperidine-2,6-dione] | B′ |  |  |  | < 10 | B′
5 | C=C(Cl)C(=O)N1CCN(c2nc(OC[C@@H]3CCCN3C)nc3c(F)c(-c4c(F)cccc4OCCCCCCCN4CCC(c5cc(F)cc6c5CN(C5CCC(=O)NC5=O)C6=O)CC4)c(Cl)cc23)C[C@H]1CC#N (stereo partly drawn) [Compound 128, 2-((2R)-4-(6-Chloro-7-(2-((7-(4-(2-(2,6-dioxopiperidin-3-yl)-6-fluoro-1-oxoisoindolin-4-yl)piperidin-1-yl)heptyl)oxy)-6-fluorophenyl)-8-fluoro-2-(((S)-1-methylpyrrolidin-2-yl)methoxy)quinazolin-4-yl)-1-(2-chloroacryloyl)piperazin-2-yl)acetonitrile] | A′ |  |  |  | < 10 | A′
6 | C=C(Cl)C(=O)N1CCN(c2ncnc3c(F)c(-c4c(F)cccc4OCCC4CCC(CCN5CCC(c6cc(F)cc7c6CN(C6CCC(=O)NC6=O)C7=O)CC5)CC4)c(Cl)cc23)C[C@H]1CC#N (stereo partly drawn) [Compound 129, 2-((2R)-4-(6-Chloro-7-(2-(2-(4-(2-(4-(2-(2,6-dioxopiperidin-3-yl)-6-fluoro-1-oxoisoindolin-4-yl)piperidin-1-yl)ethyl)cyclohexyl)ethoxy)-6-fluorophenyl)-8-fluoroquinazolin-4-yl)-1-(2-chloroacryloyl)piperazin-2-yl)acetonitrile] | A′ |  |  |  | < 10 | B′

More lines, main results first:

Row | Inhibition of H358 cells, IC50 (class) (H358 cells) | SMILES | viability at 10 µM (MOLM-13 cells; Table 1) [%] | viability at 10 µM (MV-4-11 cells) [%] | viability at 10 µM (H358 cells; Homo sapiens, NCI-H358, 72 h, Table 1, compound at 10 μM, read-out: Effect on H358 cell viability (% DMSO)) [%] | viability at 10 µM (MOLM-13 cells; Table 2) [%] | Inhibition of H23 cells, IC50 (class) (H23 cells)
7 | A′ | C=C(Cl)C(=O)N1CCN(c2nc(=O)n(-c3c(C)ccnc3C(C)C)c3nc(-c4c(F)cccc4OCCCCCCCN4CCC(c5cc(F)cc6c5CN(C5CCC(=O)NC5=O)C6=O)CC4)c(F)cc23)[C@@H](C)C1 (stereo partly drawn) [Compound 122, 3-(4-(1-(7-(2-(4-((S)-4-(2-Chloroacryloyl)-2-methylpiperazin-1-yl)-6-fluoro-1-(2-isopropyl-4-methylpyridin-3-yl)-2-oxo-1,2-dihydropyrido[2,3-d]pyrimidin-7-yl)-3-fluorophenoxy)heptyl)piperidin-4-yl)-6-fluoro-1-oxoisoindolin-2-yl)piperidine-2,6-dione] |  |  |  | < 10 | A′
8 | B′ | C=C(Cl)C(=O)N1C[C@@H]2C(=O)N(CCCCCCCN3CCC(c4cc(F)cc5c4CN(C4CCC(=O)NC4=O)C5=O)CC3)c3cnc4c(F)c(-c5c(O)cccc5F)c(Cl)cc4c3N2C[C@H]1C (stereo partly drawn) [Compound 125, 3-(4-(1-(7-((2R,4aR)-11-Chloro-3-(2-chloroacryloyl)-9-fluoro-10-(2-fluoro-6-hydroxyphenyl)-2-methyl-5-oxo-1,2,3,4,4a,5-hexahydro-6H-pyrazino[1′,2′:4,5]pyrazino[2,3-c]quinolin-6-yl)heptyl)piperidin-4-yl)-6-fluoro-1-oxoisoindolin-2-yl)piperidine-2,6-dione] |  |  |  | < 10 | B′
9 | A′ | C=C(Cl)C(=O)N1CCN(c2ncnc3c(F)c(-c4c(F)cccc4OC[C@H]4CC[C@@H](CN5CCC(c6cc(F)cc7c6CN(C6CCC(=O)NC6=O)C7=O)CC5)CC4)c(Cl)cc23)CC1 (stereo partly drawn) [Compound 127, 3-(4-(1-(((1s,4s)-4-((2-(6-Chloro-4-(4-(2-chloroacryloyl)piperazin-1-yl)-8-fluoro-quinazolin-7-yl)-3-fluorophenoxy)methyl)cyclohexyl)methyl)piperidin-4-yl)-6-fluoro-1-oxoisoindolin-2-yl)piperidine-2,6-dione] |  |  |  | < 10 | A′
10 | B′ | C=C(Cl)C(=O)N1CCN(c2ncnc3c(F)c(-c4c(F)cccc4OCCC4CCC(CCN5CCC(c6cc(F)cc7c6CN(C6CCC(=O)NC6=O)C7=O)CC5)C4)c(Cl)cc23)CC1 (stereo not drawn) [Compound 130, 3-(4-(1-(2-(3-(2-(2-(6-Chloro-4-(4-(2-chloroacryloyl)piperazin-1-yl)-8-fluoroquinazolin-7-yl)-3-fluorophenoxy)ethyl)cyclopentyl)ethyl)piperidin-4-yl)-6-fluoro-1-oxoisoindolin-2-yl)piperidine-2,6-dione] |  |  |  | < 10 | A′
11 | D′ | CCC(=O)N1CCN(c2ncnc3c(F)c(-c4c(F)cccc4OCCNCC(=O)N4CCC(C#Cc5cccc6c5CN(C5CCC(=O)NC5=O)C6=O)CC4)c(Cl)cc23)CC1 (stereo not drawn) [Compound 133, 3-(4-((1-((2-(2-(6-Chloro-8-fluoro-4-(4-propionylpiperazin-1-yl)quinazolin-7-yl)-3-fluorophenoxy)ethyl)glycyl)piperidin-4-yl)-1λ^5-ethynyl)-1-oxoisoindolin-2-yl)piperidine-2,6-dione] |  |  |  | ≥ 50 | D′
